US20230093861A1, “RAPAMYCIN ANALOGS AS MTOR INHIBITORS” (Revolution Medicines, Inc., priority 2017, published 2023)
Read-outs that look alike come from different tables or passages of the source.

What was measured:
P-P70S6K (T389) = test: Cell based AlphaLISA assay, inhibition of P-P70S6K (T389) (mTORC1 substrate phosphorylation) in MDA-MB-468 cells; conditions: Homo sapiens, 4 h, AlphaLISA, two to four hours at 37° C., read-out: pIC50 for Inhibition of mTORC1 and mTORC2 Substrate Phosphorylation, P-P70S6K-(T389) (converted)
Method in brief: (§1)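 AlphaLISA SureFire Ultra detection of phosphorylated substrate in lysed cells; duplicate Alpha reads; control-normalized IC50 fitting.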

P-4E-BP1 (T37/46) = test: Cell based AlphaLISA assay, inhibition of P-4E-BP1 (T37/46) (mTORC1 substrate phosphorylation) in MDA-MB-468 cells; conditions: Homo sapiens, AlphaLISA, two to four hours at 37° C., read-out: pIC50 for Inhibition of mTORC1 and mTORC2 Substrate Phosphorylation, P-4E-BP1-(T37/46) (converted)
Method in brief: as §1

P-Akt (S473) = test: Cell based AlphaLISA assay, inhibition of P-Akt (S473) (mTORC2 substrate phosphorylation) in MDA-MB-468 cells; conditions: Homo sapiens, AlphaLISA, two to four hours at 37° C., read-out: pIC50 for Inhibition of mTORC1 and mTORC2 Substrate Phosphorylation, p-AKT 1/2/3 -(S473) (converted)
Method in brief: as §1

## CO[C@H]1C[C@@H]2CC[C@@H](C)[C@@](O)(O2)C(=O)C(=O)N2CCCC[C@H]2C(=O)O[C@H]([C@H](C)C[C@@H]2CC[C@H](n3cc(COC(=O)NCCOCCOCCOCCC(=O)NCCOCCOCCC(=O)NCCCCn4nc(-c5ccc6oc(N)nc6c5)c5c(N)ncnc54)nn3)[C@H](OC)C2)C[C@@H](OC)[C@H](C)/C=C(\C)[C@@H](O)[C@@H](OC)C(=O)[C@H](C)C[C@H](C)/C=C/C=C/C=C/1C [Example 143]
P-P70S6K (T389)
  IC50: 1 to 10 nM
P-4E-BP1 (T37/46); MDA-MB-468, 4 h
  IC50: 31.6 to 1000 nM
P-Akt (S473); MDA-MB-468, 4 h
  IC50: > 1000 nM

## CO[C@H]1C[C@@H]2CC[C@@H](C)[C@@](O)(O2)C(=O)C(=O)N2CCCC[C@H]2C(=O)O[C@H]([C@H](C)C[C@@H]2CC[C@@H](OCc3cccc(-c4cnc(N5CCN(Cc6cn(CCOCCOCCOCCOCCC(=O)NCCCCn7nc(-c8ccc9oc(N)nc9c8)c8c(N)ncnc87)nn6)CC5)nc4)c3)[C@H](OC)C2)CC(=O)[C@H](C)/C=C(\C)[C@@H](O)[C@@H](OC)C(=O)[C@H](C)C[C@H](C)/C=C/C=C/C=C/1C [Example 21]
P-P70S6K (T389)
  IC50: < 1 nM
P-4E-BP1 (T37/46); MDA-MB-468, 4 h
  IC50: < 3.16 nM
P-Akt (S473); MDA-MB-468, 4 h
  IC50: 3.16 to 31.6 nM

## CO[C@H]1C[C@@H]2CC[C@@H](C)[C@@](O)(O2)C(=O)C(=O)N2CCCC[C@H]2C(=O)O[C@H]([C@H](C)C[C@@H]2CC[C@H](n3nncc3-c3cccc(-c4cnc(N5CCN(S(=O)(=O)CCc6cn(CCOCCOCCOCCC(=O)NCCCCn7nc(-c8ccc9oc(N)nc9c8)c8c(N)ncnc87)nn6)CC5)nc4)c3)[C@H](OC)C2)CC(=O)[C@H](C)/C=C(\C)[C@@H](O)[C@@H](OC)C(=O)[C@H](C)C[C@H](C)/C=C/C=C/C=C/1C [Example 35]
P-P70S6K (T389)
  IC50: < 1 nM
P-4E-BP1 (T37/46); MDA-MB-468, 4 h
  IC50: < 3.16 nM
P-Akt (S473); MDA-MB-468, 4 h
  IC50: 3.16 to 31.6 nM

## CO[C@H]1C[C@@H]2CC[C@@H](C)[C@@](O)(O2)C(=O)C(=O)N2CCCC[C@H]2C(=O)O[C@H]([C@H](C)C[C@@H]2CC[C@H](n3cc(CCCC(=O)NCCOCCOCCOCCC(=O)NCCOCCOCCOCCC(=O)NCCCCn4nc(-c5ccc6oc(N)nc6c5)c5c(N)ncnc54)nn3)[C@H](OC)C2)CC(=O)[C@H](C)/C=C(\C)[C@@H](O)[C@@H](OC)C(=O)[C@H](C)C[C@H](C)/C=C/C=C/C=C/1C [Example 130]
P-P70S6K (T389)
  IC50: 1 to 10 nM
P-4E-BP1 (T37/46); MDA-MB-468, 4 h
  IC50: 3.16 to 31.6 nM
P-Akt (S473); MDA-MB-468, 4 h
  IC50: 3.16 to 31.6 nM

## CO[C@H]1C[C@@H]2CC[C@@H](C)[C@@](O)(O2)C(=O)C(=O)N2CCCC[C@H]2C(=O)O[C@H]([C@H](C)C[C@@H]2CC[C@@H](OCCCCc3cn(CCOCCOCCOCCOCCOCCOCCOCCOCCC(=O)N(C)CCCCn4nc(-c5ccc6oc(N)nc6c5)c5c(N)ncnc54)nn3)[C@H](OC)C2)CC(=O)[C@H](C)/C=C(\C)[C@@H](O)[C@@H](OC)C(=O)[C@H](C)C[C@H](C)/C=C/C=C/C=C/1C [Example 83]
P-P70S6K (T389)
  IC50: < 1 nM
P-4E-BP1 (T37/46); MDA-MB-468, 4 h
  IC50: < 3.16 nM
P-Akt (S473); MDA-MB-468, 4 h
  IC50: < 3.16 nM

## CO[C@H]1C[C@@H]2CC[C@@H](C)[C@@](O)(O2)C(=O)C(=O)N2CCCC[C@H]2C(=O)O[C@H]([C@H](C)C[C@@H]2CC[C@H](n3nncc3-c3cccc(-c4cnc(N5CCN(Cc6cn(CCOCCOCCOCCOCCOCCC(=O)NCCCCn7nc(-c8ccc9oc(N)nc9c8)c8c(N)ncnc87)nn6)C(CO)C5)nc4)c3)[C@H](OC)C2)CC(=O)[C@H](C)/C=C(\C)[C@@H](O)[C@@H](OC)C(=O)[C@H](C)C[C@H](C)/C=C/C=C/C=C/1C (stereo partly drawn) [Example 32]
P-P70S6K (T389)
  IC50: 1 to 10 nM
P-4E-BP1 (T37/46); MDA-MB-468, 4 h
  IC50: 3.16 to 31.6 nM
P-Akt (S473); MDA-MB-468, 4 h
  IC50: 3.16 to 31.6 nM

## CO[C@H]1C[C@@H]2CC[C@@H](C)[C@@](O)(O2)C(=O)C(=O)N2CCCC[C@H]2C(=O)O[C@H]([C@H](C)C[C@@H]2CC[C@@H](OCc3cccc(-c4cnc(N5CCN(Cc6cn(CCOCCOCCOCCOCCOCCC(=O)NCCCCn7nc(-c8ccc9oc(N)nc9c8)c8c(N)ncnc87)nn6)CC5)nc4)c3)[C@H](OC)C2)CC(=O)[C@H](C)/C=C(\C)[C@@H](O)[C@@H](OC)C(=O)[C@H](C)C[C@H](C)/C=C/C=C/C=C/1C [Example 20]
P-P70S6K (T389)
  IC50: < 1 nM
P-4E-BP1 (T37/46); MDA-MB-468, 4 h
  IC50: < 3.16 nM
P-Akt (S473); MDA-MB-468, 4 h
  IC50: 3.16 to 31.6 nM

## CO[C@H]1C[C@@H]2CC[C@@H](C)[C@@](O)(O2)C(=O)C(=O)N2CCCC[C@H]2C(=O)O[C@H]([C@H](C)C[C@@H]2CC[C@@H](OCCCCc3cn(CCOCCOCCOCCOCCOCCOCCOCCOCCNC(=O)c4ccc(-c5ccc6c(N7CCOC[C@H]7C)nc(N7CCOC[C@H]7C)nc6n5)cc4)nn3)[C@H](OC)C2)CC(=O)[C@H](C)/C=C(\C)[C@@H](O)[C@@H](OC)C(=O)[C@H](C)C[C@H](C)/C=C/C=C/C=C/1C [Example 107]
P-P70S6K (T389)
  IC50: < 1 nM
P-4E-BP1 (T37/46); MDA-MB-468, 4 h
  IC50: < 3.16 nM
P-Akt (S473); MDA-MB-468, 4 h
  IC50: < 3.16 nM

## CO[C@H]1C[C@@H]2CC[C@@H](C)[C@@](O)(O2)C(=O)C(=O)N2CCCC[C@H]2C(=O)O[C@H]([C@H](C)C[C@@H]2CC[C@H](n3cc(COCCOCCOCCOCCC(=O)OCCOCCOCCOCCOCCC(=O)NCCCCn4nc(-c5ccc6oc(N)nc6c5)c5c(N)ncnc54)nn3)[C@H](OC)C2)CC(=O)C(C)/C=C(\C)[C@@H](O)[C@@H](OC)C(=O)[C@H](C)C[C@H](C)/C=C/C=C/C=C/1C (stereo in doubt) [Example 197]
P-P70S6K (T389)
  IC50: 1 to 10 nM
P-4E-BP1 (T37/46); MDA-MB-468, 4 h
  IC50: 3.16 to 31.6 nM
P-Akt (S473); MDA-MB-468, 4 h
  IC50: 31.6 to 1000 nM

## CO[C@H]1C[C@@H]2CC[C@@H](C)[C@@](O)(O2)C(=O)C(=O)N2CCCC[C@H]2C(=O)O[C@H]([C@H](C)C[C@@H]2CC[C@@H](OCCCCc3cn(CCOCCOCCOCCOCCOCCOCCC(=O)N4CCc5cc(Cn6nc(-c7ccc8oc(N)nc8c7)c7c(N)ncnc76)ccc5C4)nn3)[C@H](OC)C2)CC(=O)[C@H](C)/C=C(\C)[C@@H](O)[C@@H](OC)C(=O)[C@H](C)C[C@H](C)/C=C/C=C/C=C/1C [Example 89]
P-P70S6K (T389)
  IC50: < 1 nM
P-4E-BP1 (T37/46); MDA-MB-468, 4 h
  IC50: < 3.16 nM
P-Akt (S473); MDA-MB-468, 4 h
  IC50: 3.16 to 31.6 nM

## CO[C@H]1C[C@@H]2CC[C@@H](C)[C@@](O)(O2)C(=O)C(=O)N2CCCC[C@H]2C(=O)O[C@H]([C@H](C)C[C@@H]2CC[C@@H](OCCCCc3cn(CCOCCOCCOCCOCCOCCOCCOCCOCCC(=O)NCc4ccc(Cn5nc(-c6ccc7oc(N)nc7c6)c6c(N)ncnc65)cc4)nn3)[C@H](OC)C2)CC(=O)[C@H](C)/C=C(\C)[C@@H](O)[C@@H](OC)C(=O)[C@H](C)C[C@H](C)/C=C/C=C/C=C/1C [Example 85]
P-P70S6K (T389)
  IC50: < 1 nM
P-4E-BP1 (T37/46); 4 h
  IC50: < 3.16 nM
P-Akt (S473); 4 h
  IC50: 3.16 to 31.6 nM

## CO[C@H]1C[C@@H]2CC[C@@H](C)[C@@](O)(O2)C(=O)C(=O)N2CCCC[C@H]2C(=O)O[C@H]([C@H](C)C[C@@H]2CC[C@@H](O)[C@H](OC)C2)C[C@@H](OC)[C@H](C)/C=C(\C)[C@@H](O)[C@@H](OC)C(=NOCc2cn(CCOCCOCCOCCOCCOCCOCCOCCOCCC(=O)NCCCCn3nc(-c4ccc5oc(N)nc5c4)c4c(N)ncnc43)nn2)[C@H](C)C[C@H](C)/C=C/C=C/C=C/1C [Example 17]
P-P70S6K (T389)
  IC50: 1 to 10 nM
P-4E-BP1 (T37/46); MDA-MB-468, 4 h
  IC50: 3.16 to 31.6 nM
P-Akt (S473); MDA-MB-468, 4 h
  IC50: 31.6 to 1000 nM

## CO[C@H]1C[C@@H]2CC[C@@H](C)[C@@](O)(O2)C(=O)C(=O)N2CCCC[C@H]2C(=O)O[C@H]([C@H](C)C[C@@H]2CC[C@@H](OCCCCc3cn(CCOCCOCCOCCOCCOCCOCCOCCOCCC(=O)NCCCCn4nc(-c5ccc6oc(N)nc6c5)c5c(N)ncnc54)nn3)[C@H](OC)C2)C[C@@H](OC)[C@H](C)/C=C(\C)[C@@H](O)[C@@H](OC)C(=O)[C@H](C)C[C@H](C)/C=C/C=C/C=C/1C [Example 77]
P-P70S6K (T389)
  IC50: < 1 nM
P-4E-BP1 (T37/46); MDA-MB-468, 4 h
  IC50: < 3.16 nM
P-Akt (S473); MDA-MB-468, 4 h
  IC50: 3.16 to 31.6 nM
